Measurements: patent US8404708B2, “Dual NK1/NK3 receptor antagonists” (Hoffmann-La Roche Inc., priority 2004, dated 2013)
Like-named read-outs stand apart in the source and are kept apart here.

How the values were obtained:
human NK1 receptor = human NK1 receptor (Homo sapiens, UniProt P25103); assay: NK1 receptor binding, [3H]substance P displacement, CHO cell membranes
[1] = target: T1, Recombinant human NK3 (hNK3) receptor (Homo sapiens, UniProt P29371); assay: NK3 receptor binding, [3H]SR142801 displacement, membrane preparations
T1 construct: expressed in transfected cells
T1 sequence (P29371 1-465): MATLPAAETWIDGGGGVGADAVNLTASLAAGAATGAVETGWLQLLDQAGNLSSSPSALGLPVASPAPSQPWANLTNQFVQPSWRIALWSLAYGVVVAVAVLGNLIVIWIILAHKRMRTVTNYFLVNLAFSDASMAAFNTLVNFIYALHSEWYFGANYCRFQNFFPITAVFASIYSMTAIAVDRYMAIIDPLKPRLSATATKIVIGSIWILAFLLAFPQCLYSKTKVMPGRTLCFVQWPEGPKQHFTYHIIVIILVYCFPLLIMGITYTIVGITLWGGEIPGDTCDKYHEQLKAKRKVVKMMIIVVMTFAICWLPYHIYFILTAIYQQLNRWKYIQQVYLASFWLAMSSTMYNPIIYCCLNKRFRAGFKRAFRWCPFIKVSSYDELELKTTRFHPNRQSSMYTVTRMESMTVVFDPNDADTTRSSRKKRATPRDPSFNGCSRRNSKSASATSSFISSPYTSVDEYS
Method in brief: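 Buffer: Tris-HCl 50 mM pH 7.4, BSA 0.1%, MnCl2 4 mM, phosphoramidon 1 μM. ~2.5 μg membrane/well, 90 min RT. NSB with SB222200 (10 μM). Vacuum filtration over 0.3% PEI-treated GF/C, cold Tris/BSA washes, scintillation count; duplicates, ≥2 experiments.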

[2] = first value of the cell pKi NK1/NK3, human NK1 receptor, [3H]substance P
[3] = second value of the cell pKi NK1/NK3, hNK3 receptor, [3H]SR142801
[4] = first value of the cell NK1/NK3, read-out: pKi NK1 (converted)
[5] = second value of the cell NK1/NK3, read-out: pKi NK3 (converted)

human NK1 receptor, sequence (P25103 whole entry): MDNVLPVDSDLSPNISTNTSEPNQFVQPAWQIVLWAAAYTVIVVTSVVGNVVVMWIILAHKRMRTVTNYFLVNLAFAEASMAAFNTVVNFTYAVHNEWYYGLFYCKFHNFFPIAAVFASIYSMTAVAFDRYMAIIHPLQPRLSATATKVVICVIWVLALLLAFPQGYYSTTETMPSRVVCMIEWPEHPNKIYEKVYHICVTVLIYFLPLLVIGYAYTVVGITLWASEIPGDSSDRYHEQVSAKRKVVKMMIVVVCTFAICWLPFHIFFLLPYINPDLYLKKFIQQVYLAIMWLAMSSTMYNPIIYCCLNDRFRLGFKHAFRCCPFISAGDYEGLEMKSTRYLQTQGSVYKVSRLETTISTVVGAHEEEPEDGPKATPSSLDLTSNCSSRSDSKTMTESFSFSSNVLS

C[C@@H](O)[C@@H](CO)Nc1cc(-c2ccccc2Cl)c(N(C)C(=O)C(C)(C)c2cc(C(F)(F)F)cc(C(F)(F)F)c2)cn1 [Example 144, (1R,2R)-2-(3,5-Bis-trifluoromethyl-phenyl)-N-[4-(2-chloro-phenyl)-6-(2-hydroxy-1-hydroxymethyl-propylamino)-pyridin-3-yl]-N-methyl-isobutyramide]
Ki (human NK1 receptor; [2]): 3.63 nM | Ki [1, 3]: 1.2 nM

Cc1cc(C)cc(C(C)(C)C(=O)N(C)c2cnc(N3C[C@H](O)C[C@H]3CO)cc2-c2ccccc2Cl)c1 [Example 10, (2S,4R)-N-[4-(2-Chloro-phenyl)-6-(4-hydroxy-2-hydroxymethyl-pyrrolidin-1-yl)-pyridin-3-yl]-2-(3,5-dimethyl-phenyl)-N-methyl-isobutyramide]
Ki (human NK1 receptor; [2]): 2.14 nM | Ki [1, 3]: 3.63 nM

Cc1noc(C)c1-c1cc(N2C[C@H](O)C[C@H]2CO)ncc1N(C)C(=O)C(C)(C)c1cc(C(F)(F)F)cc(C(F)(F)F)c1 [Example 230, (2S,4R)-2-(3,5-Bis-trifluoromethyl-phenyl)-N-[4-(3,5-dimethyl-isoxazol-4-yl)-6-(4-hydroxy-2-hydroxymethyl-pyrrolidin-1-yl)-pyridin-3-yl]-N-methyl-isobutyramide]
Ki (human NK1 receptor; [4]): 0.741 nM | Ki [1, 5]: 2.69 nM

COc1ccc(-c2cc(N3C[C@H](O)C[C@H]3CO)ncc2N(C)C(=O)C(C)(C)c2cc(C(F)(F)F)cc(C(F)(F)F)c2)c(OC)n1 [Example 231, (2S,4R)-2-(3,5-Bis-trifluoromethyl-phenyl)-N-[6′-(4-hydroxy-2-hydroxymethyl-pyrrolidin-1-yl)-2,6-dimethoxy-[3,4′]bipyridinyl-3′-yl]-N-methyl-isobutyramide]
Ki (human NK1 receptor; [4]): 2.45 nM | Ki [1, 5]: 14.1 nM

Cc1ccc(F)cc1-c1cc(N2CCC[C@H]2CO)ncc1N(C)C(=O)C(C)(C)c1cc(C(F)(F)F)cc(C(F)(F)F)c1 [Example 166, (S)-2-(3,5-Bis-trifluoromethyl-phenyl)-N-[4-(5-fluoro-2-methyl-phenyl)-6-(2-hydroxymethyl-pyrrolidin-1-yl)-pyridin-3-yl]-N-methyl-isobutyramide]
Ki (human NK1 receptor; [2]): 3.8 nM | Ki [1, 3]: 1.2 nM

CN(C(=O)C(C)(C)c1cc(C(F)(F)F)cc(C(F)(F)F)c1)c1cnc(N2C[C@H](O)C[C@H]2CO)cc1-c1ccc(F)cc1Cl [Example 221, (2S,4R)-2-(3,5-Bis-trifluoromethyl-phenyl)-N-[4-(2-chloro-4-fluoro-phenyl)-6-(4-hydroxy-2-hydroxymethyl-pyrrolidin-1-yl)-pyridin-3-yl]-N-methyl-isobutyramide]
Ki (human NK1 receptor; [4]): 0.933 nM | Ki [1, 5]: 5.25 nM

CN(C(=O)C(C)(C)c1cc(C(F)(F)F)cc(C(F)(F)F)c1)c1cnc(N2CCC[C@H]2CO)cc1-c1ccccc1Cl [Example 42, (S)-2-(3,5-Bis-trifluoromethyl-phenyl)-N-[4-(2-chloro-phenyl)-6-(2-hydroxymethyl-pyrrolidin-1-yl)-pyridin-3-yl]-N-methyl-isobutyramide]
Ki (human NK1 receptor; [2]): 1.66 nM | Ki [1, 3]: 0.832 nM

CN(C(=O)C(C)(C)c1cc(C(F)(F)F)cc(C(F)(F)F)c1)c1cnc(N2CCC[C@H]2CO)cc1-c1ccc(F)cc1 [Example 288, (S)-2-(3,5-Bis-trifluoromethyl-phenyl)-N-[4-(4-fluoro-phenyl)-6-(2-hydroxymethyl-pyrrolidin-1-yl)-pyridin-3-yl]-N-methyl-isobutyramide]
Ki (human NK1 receptor; [4]): 2.63 nM | Ki [1, 5]: 2.51 nM

CN(C(=O)C(C)(C)c1cc(C(F)(F)F)cc(C(F)(F)F)c1)c1cnc(N2C[C@H](O)C[C@H]2CO)cc1-c1ccccc1O [Example 215, (2S,4R)-2-(3,5-Bis-trifluoromethyl-phenyl)-N-[6-(4-hydroxy-2-hydroxymethyl-pyrrolidin-1-yl)-4-(2-hydroxy-phenyl)-pyridin-3-yl]-N-methyl-isobutyramide]
Ki (human NK1 receptor; [4]): 1.02 nM | Ki [1, 5]: 4.47 nM
